Measured values taken from patent EP2931723B1, “NEW BICYCLIC COMPOUNDS AND THEIR USE AS ANTIBACTERIAL AGENTS AND -LACTAMASE INHIBITORS” (Fedora Pharmaceuticals Inc., priority 2012, dated 2014).

Key:
[1] = test system: E. coli JMI 10767; experiment: MIC, antibacterial and synergistic activity; assay type: cell-based; settings: E. coli JMI 10767 (Wt); for MIC Aztreonam + inhibitor: Aztreonam + inhibitor at 4 µg/mL; for MIC Ceftazidime + inhibitor: Ceftazidime + inhibitor at 4 µg/mL
Protocol: (§1) In the Tables 10 - 12, compounds herein disclosed were tested in combination with various antibiotics against metallo β-lactamase producing bacteria. Table 3: Synergy of the inhibitor Ex. 1 (4 µg/mL) in combination with antibiotics

[2] = test system: E. coli JMI 2665; experiment: MIC, antibacterial and synergistic activity; assay type: cell-based; settings: for MIC Aztreonam + inhibitor: Aztreonam + inhibitor at 4 µg/mL; for MIC Ceftazidime + inhibitor: Ceftazidime + inhibitor at 4 µg/mL; for MIC: Escherichia coli, JMI2665
Protocol: as §1

[3] = test system: K. pneumo JMI 2674; experiment: MIC, antibacterial and synergistic activity; assay type: cell-based; settings: K. pneumo JMI 2674 (CTX-M15 (ESBL)); for MIC Aztreonam + inhibitor: Aztreonam + inhibitor at 4 µg/mL; for MIC Ceftazidime + inhibitor: Ceftazidime + inhibitor at 4 µg/mL; for MIC Meropenem + inhibitor: Meropenem + inhibitor at 4 µg/mL
Summary of the method: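 Antibacterial activity was assessed as minimum inhibitory concentrations against a β-lactamase-producing bacterial strain. Each test inhibitor was combined with an antibiotic, with the inhibitor held at a fixed 4 µg/mL, to determine whether it acted synergistically and restored the antibiotic's effect against the resistant organism.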

[4] = test system: E. coli JMI 10770; experiment: MIC, antibacterial and synergistic activity; assay type: cell-based; settings: E. coli JMI 10770 (CTX-M15 (Hyper ESBL)); for MIC Aztreonam + inhibitor: Aztreonam + inhibitor at 4 µg/mL; for MIC Ceftazidime + inhibitor: Ceftazidime + inhibitor at 4 µg/mL; for MIC Meropenem + inhibitor: Meropenem + inhibitor at 4 µg/mL
Protocol: as §1

[5] = test system: K. pneumo JMI 4088; experiment: MIC, antibacterial and synergistic activity; assay type: cell-based; settings: K. pneumo JMI 4088 (KPC-3 (Cpase)); for MIC Aztreonam + inhibitor: Aztreonam + inhibitor at 4 µg/mL; for MIC Ceftazidime + inhibitor: Ceftazidime + inhibitor at 4 µg/mL; for MIC Meropenem + inhibitor: Meropenem + inhibitor at 4 µg/mL
Summary of the method: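 Minimum inhibitory concentrations were measured for antibiotics given together with the test inhibitor, held at 4 µg/mL, against bacteria that produce β-lactamase. The purpose was to see whether the inhibitor restores or boosts antibacterial activity, that is, synergy with the antibiotic.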

[6] = test system: E. coli JMI 2671; experiment: MIC, antibacterial and synergistic activity; assay type: cell-based; settings: for MIC Aztreonam + inhibitor / MIC Ceftazidime + inhibitor / MIC Meropenem + inhibitor: E. coli JMI 2671 (VIM-19 (Cpase)); for MIC Aztreonam + inhibitor: Aztreonam + inhibitor at 4 µg/mL; for MIC Ceftazidime + inhibitor: Ceftazidime + inhibitor at 4 µg/mL; for MIC Meropenem + inhibitor: Meropenem + inhibitor at 4 µg/mL; for MIC: Escherichia coli, JMI2671, E. coli JMI 2671 (VIM-19 (Cpase)), substance alone
Summary of the method: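 Metallo β-lactamase-producing isolates were exposed to antibiotics plus a constant inhibitor level (4 µg/mL), and growth inhibition gave the MIC.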

[7] = test system: K.pneumo JMI 4109; experiment: MIC, antibacterial and synergistic activity; assay type: cell-based; settings: K.pneumo JMI 4109 (SHV-1, SHV-12); for MIC Aztreonam + inhibitor: Aztreonam + inhibitor at 4 µg/mL; for MIC Ceftazidime + inhibitor: Ceftazidime + inhibitor at 4 µg/mL; for MIC Meropenem + inhibitor: Meropenem + inhibitor at 4 µg/mL
Summary of the method: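 Antibacterial synergy was assessed by pairing each inhibitor compound, at a constant concentration of 4 µg/mL, with β-lactam antibiotics. The combinations were run against bacterial strains that produce β-lactamases, and the readout was the minimum inhibitory concentration of the antibiotic in the presence of the inhibitor.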

[8] = test system: E. coli JMI 4080; experiment: MIC, antibacterial and synergistic activity; assay type: cell-based; settings: for MIC Aztreonam + inhibitor / MIC Ceftazidime + inhibitor / MIC Meropenem + inhibitor: E. coli JMI 4080 (Tem-10); for MIC Aztreonam + inhibitor: Aztreonam + inhibitor at 4 µg/mL; for MIC Ceftazidime + inhibitor: Ceftazidime + inhibitor at 4 µg/mL; for MIC Meropenem + inhibitor: Meropenem + inhibitor at 4 µg/mL; for MIC: Escherichia coli, JMI4080, E. coli JMI 4080 (Tem-10), substance alone
[9] = test system: K. pneumo JMI 2673; experiment: MIC, antibacterial and synergistic activity; assay type: cell-based; settings: K. pneumo JMI 2673 (CTX-M14 (ESBL)); substance alone
[10] = target: CTX-M-9 (Escherichia coli, UniProt Q9L5C8); experiment: β-lactamase inhibitory activity, spectrophotometric nitrocefin assay; assay type: biochemical; settings: nitrocefin as substrate
Protocol: (§2) The inhibitory activities of compounds herein disclosed against various enzymes were measured by spectrophotometric assay using […] and using nitrocefin as a substrate [J. Antimicrob. Chemother., 28, pp 775-776 (1991)] . The concentration of inhibitor (IC50) which inhibits by 50% the reaction of hydrolysis of nitrocefin by the enzyme is determined. […] Table 13 Test for β-lactamase Inhibitory Activity

[11] = target: CMY-2 (Klebsiella pneumoniae, UniProt Q48434); experiment: as above; assay type: biochemical; settings: nitrocefin as substrate
Protocol: as §2

[12] = target: TEM-1 (Escherichia coli, UniProt P62593); experiment: as above; assay type: biochemical; settings: nitrocefin as substrate
Protocol: as §2

[13] = target: KPC-2 (Klebsiella pneumoniae, UniProt Q9F663); experiment: as above; assay type: biochemical; settings: nitrocefin as substrate
Protocol: as §2

[14] = test system: metallo β-lactamase producing bacteria; experiment: MIC in combination with various antibiotics against metallo β-lactamase producing bacteria (Tables 10-12); assay type: cell-based; settings: Enterobacter cloacae, agent alone
Protocol: In the Tables 10 - 12, compounds herein disclosed were tested in combination with various antibiotics against metallo β-lactamase producing bacteria.

[15] = E. coli JMI 2665 (CMY-2 (Plasmid Cpase))

KPC-2, sequence (Q9F663 25-293, looked up, species assumed): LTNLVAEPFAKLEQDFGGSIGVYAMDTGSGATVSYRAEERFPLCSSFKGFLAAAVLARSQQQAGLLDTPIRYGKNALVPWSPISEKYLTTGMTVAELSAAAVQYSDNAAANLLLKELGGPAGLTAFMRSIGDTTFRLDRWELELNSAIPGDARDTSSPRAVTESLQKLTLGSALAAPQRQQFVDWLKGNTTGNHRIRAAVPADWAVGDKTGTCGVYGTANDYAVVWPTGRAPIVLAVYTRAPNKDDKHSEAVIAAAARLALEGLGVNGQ
TEM-1, sequence (P62593 24-286 limits assumed): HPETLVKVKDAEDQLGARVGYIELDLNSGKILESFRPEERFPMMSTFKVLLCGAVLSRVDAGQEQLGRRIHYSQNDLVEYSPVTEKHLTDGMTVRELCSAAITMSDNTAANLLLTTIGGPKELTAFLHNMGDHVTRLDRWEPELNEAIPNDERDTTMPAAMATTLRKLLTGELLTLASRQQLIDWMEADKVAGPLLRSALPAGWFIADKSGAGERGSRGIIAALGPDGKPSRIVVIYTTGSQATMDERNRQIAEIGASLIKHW
CMY-2, sequence (Q48434 21-381, species assumed): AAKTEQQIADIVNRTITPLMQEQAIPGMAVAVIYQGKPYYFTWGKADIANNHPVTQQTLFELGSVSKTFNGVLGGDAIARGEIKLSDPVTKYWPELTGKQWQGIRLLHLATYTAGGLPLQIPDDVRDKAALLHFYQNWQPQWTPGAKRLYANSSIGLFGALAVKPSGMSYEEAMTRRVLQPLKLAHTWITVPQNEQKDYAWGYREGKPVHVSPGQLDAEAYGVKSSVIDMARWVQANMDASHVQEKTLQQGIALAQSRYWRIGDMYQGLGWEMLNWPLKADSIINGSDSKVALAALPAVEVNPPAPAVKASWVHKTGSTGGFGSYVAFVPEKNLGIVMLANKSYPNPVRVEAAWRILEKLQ
CTX-M-9, sequence (Q9L5C8 29-291): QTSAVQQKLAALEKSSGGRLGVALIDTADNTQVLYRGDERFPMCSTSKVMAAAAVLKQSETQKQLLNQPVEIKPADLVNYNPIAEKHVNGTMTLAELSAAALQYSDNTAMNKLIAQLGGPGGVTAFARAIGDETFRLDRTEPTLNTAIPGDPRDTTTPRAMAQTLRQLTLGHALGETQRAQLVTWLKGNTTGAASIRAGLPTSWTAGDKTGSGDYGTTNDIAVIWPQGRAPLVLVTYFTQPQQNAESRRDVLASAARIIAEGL

Structure (SMILES) | MIC Aztreonam + inhibitor [1] [µg/mL] | MIC Ceftazidime + inhibitor [1] [µg/mL] | MIC Aztreonam + inhibitor [2, 15] [µg/mL] | MIC Ceftazidime + inhibitor [2, 15] [µg/mL] | MIC [2] [µg/mL] | MIC Aztreonam + inhibitor [3] [µg/mL] | MIC Ceftazidime + inhibitor [3] [µg/mL] | MIC Meropenem + inhibitor [3] [µg/mL] | MIC Aztreonam + inhibitor [4] [µg/mL] | MIC Ceftazidime + inhibitor [4] [µg/mL] | MIC Meropenem + inhibitor [4] [µg/mL] | MIC Aztreonam + inhibitor [5] [µg/mL] | MIC Ceftazidime + inhibitor [5] [µg/mL] | MIC Meropenem + inhibitor [5] [µg/mL] | MIC Aztreonam + inhibitor [6] [µg/mL] | MIC Ceftazidime + inhibitor [6] [µg/mL] | MIC Meropenem + inhibitor [6] [µg/mL] | MIC [6] [µg/mL] | MIC Aztreonam + inhibitor [7] [µg/mL] | MIC Ceftazidime + inhibitor [7] [µg/mL] | also measured
NCCONC(=O)[C@@H]1CC[C@@H]2CN1C(=O)N2OS(=O)(=O)O [Ex. 3, (2S,5R)-N-(2-Aminoethoxy)-7-oxo-6-(sulfooxy)-1,6-diazabicyclo[3.2.1]octane-2-carboxamide] | ≤0.062 | ≤0.25 | ≤0.062 | ≤0.25 | 2 | 0.5 | ≤0.25 | 0.125 | 8 | 2 | 0.062 | 1 | ≤0.25 | 0.25 | ≤0.062 | ≤0.25 | ≤0.0312 | 2 | ≤0.062 | ≤0.25 | MIC Meropenem + inhibitor [7]: ≤0.0312 µg/mL; MIC Aztreonam + inhibitor [8]: ≤0.062 µg/mL; MIC Ceftazidime + inhibitor [8]: ≤0.25 µg/mL; MIC Meropenem + inhibitor [8]: ≤0.0312 µg/mL; MIC [8]: 2 µg/mL; MIC [9]: > 16 µg/mL
CC(=O)NNC(=O)[C@@H]1CC[C@@H]2CN1C(=O)N2OS(=O)(=O)O [Ex. 5, (2S,5R)-N'-acetyl-7-oxo-6-(sulfooxy)-1,6-diazabicyclo[3.2.1]octane-2-carbohydrazide] | ≤0.062 | ≤0.25 | ≤0.062 | ≤0.25 | 2 | 0.125 | ≤0.25 | 0.062 | ≤0.062 | ≤0.25 | ≤0.031 | 0.25 | ≤0.25 | 0.125 | ≤0.062 | 2 | 0.25 | 16 | ≤0.062 | ≤0.25 | IC50 [10]: 0.327 ± 0.02 µM; IC50 [11]: 0.008 ± 0.001 µM; IC50 [12]: 0.052 ± 0.004 µM; IC50 [13]: 0.091 ± 0.009 µM; MIC Meropenem + inhibitor ([2]; E. coli JMI 2665 (CMY-2 (Plasmid Cpase)), Meropenem + inhibitor at 4 µg/mL): ≤0.031 µg/mL; MIC Meropenem + inhibitor [7]: ≤0.031 µg/mL; MIC ([14]; Isolate No 4, Enzyme VIM-6): 64; MIC ([14]; Isolate No 10, Enzyme IMP-26): 64; MIC Aztreonam + inhibitor [8]: ≤0.062 µg/mL; MIC Ceftazidime + inhibitor [8]: ≤0.25 µg/mL; MIC Meropenem + inhibitor [8]: ≤0.031 µg/mL; MIC [8]: 2 µg/mL; MIC [9]: > 16 µg/mL
CCC(=O)NNC(=O)[C@@H]1CC[C@@H]2CN1C(=O)N2OS(=O)(=O)O [Ex. 8, (2S,5R)-7-oxo-N'-propanoyl-6-(sulfooxy)-1,6-diazabicyclo[3.2.1]octane-2-carbohydrazide] | ≤0.062 | ≤0.25 | ≤0.062 | ≤0.25 | 4 | ≤0.062 | ≤0.25 | 0.062 | ≤0.062 | ≤0.25 | ≤0.0312 | 0.125 | 0.5 | 0.5 | ≤0.062 | 0.5 | 1 | > 16 | ≤0.062 | ≤0.25 | MIC Meropenem + inhibitor [7]: ≤0.0312 µg/mL; MIC Aztreonam + inhibitor [8]: ≤0.062 µg/mL; MIC Ceftazidime + inhibitor [8]: ≤0.25 µg/mL; MIC Meropenem + inhibitor [8]: ≤0.0312 µg/mL; MIC [8]: 4 µg/mL; MIC [9]: > 16 µg/mL
